According to patent US4493845A, “Antibiotic AM-3603” (Kitasato Kenkyusho, priority 1980, dated 1985):
In brackets after ≈: the same amount, converted by molar mass. Like-named read-outs stand apart in the source and are kept apart here.

Key:
Format in all cases: cell-based
[1] = tested on: Botrytis cinerea; experiment: Comparison of anti-phytopathogenic activity, MIC; settings: Glucosepotato agar, 2-3 days
[2] = tested on: Pellicularia sasakii; experiment: Comparison of anti-phytopathogenic activity, MIC
[3] = tested on: Alternaria kikuchiana; experiment: Comparison of anti-phytopathogenic activity, MIC; settings: Glucosepotato agar, 2-3 days
[4] = tested on: Piricularia oryzae; experiment: microbe, parasite or virus in culture; settings: Glucosepotato agar, 2-3 days
[5] = tested on: Sclerotinia cinerea; experiment: Comparison of anti-phytopathogenic activity, MIC; settings: Glucosepotato agar, 2-3 days
[6] = B, laboratory stock culture, Glucosepotato agar, 2-3 days
[7] = A, isolate from infected plant, Glucosepotato agar, 2-3 days

| Molecule | MIC ([1]; Botrytis cinerea, A, isolate from infected plant) [µg/mL] | MIC ([1]; Botrytis cinerea, B, laboratory stock culture) [µg/mL] | MIC [2] [µg/mL] | MIC [2, 6] [µg/mL] | MIC ([3]; Alternaria kikuchiana, A, isolate from infected plant) [µg/mL] | MIC ([3]; Alternaria kikuchiana, B, laboratory stock culture) [µg/mL] | MIC ([4]; A, isolate from infected plant) [µg/mL] | MIC ([4]; B, laboratory stock culture) [µg/mL] | MIC ([5]; Sclerotinia, A, isolate from infected plant) [µg/mL] | MIC ([5]; Sclerotinia, B, laboratory stock culture) [µg/mL] | MIC ([1]; A, isolate from infected plant) [µg/mL] | MIC ([1]; B, laboratory stock culture) [µg/mL] | MIC [2, 7] [µg/mL] | MIC ([3]; A, isolate from infected plant) [µg/mL] | MIC ([3]; B, laboratory stock culture) [µg/mL] | MIC ([5]; A, isolate from infected plant) [µg/mL] | MIC ([5]; B, laboratory stock culture) [µg/mL] |
| --- | --- | --- | --- | --- | --- | --- | --- | --- | --- | --- | --- | --- | --- | --- | --- | --- | --- |
| CN(CCC(N)CC(=O)NC1C=CC(n2ccc(N)nc2=O)OC1C(=O)O)C(=N)N (stereo not shown) [Blasticidin S] | 50 (≈ 118 µM) | 100 (≈ 237 µM) | > 100 | > 100 | 50 (≈ 118 µM) | 12.5 (≈ 29.6 µM) | > 100 | 25 (≈ 59.2 µM) | 50 (≈ 118 µM) | 25 (≈ 59.2 µM) |  |  |  |  |  |  |  |
| C[C@@H](N)C(=O)N[C@H]1CO[C@H](O)[C@H](N)[C@H]1O [Prumycin] |  |  |  | > 100 |  |  | > 100 | 100 (≈ 456 µM) |  |  | 100 (≈ 456 µM) | 50 (≈ 228 µM) | > 100 | > 100 | 50 (≈ 228 µM) | 1.56 (≈ 7.12 µM) | 6.25 (≈ 28.5 µM) |
| Venturicidin |  |  |  | > 25 |  |  | < 0.03 | < 0.03 |  |  |  | > 25 | 1.56 |  | > 25 | 0.78 | 0.78 |
